Reference: patent EP1464649A2, “Sugar derivatives comprising oxiranes or alpha,beta-unsaturated gamma-lactones, process for their preparation and their utilisation as pesticides” (Instituto Politécnico de Santarém / Escola Superior Agraria, priority 2003, dated 2004)
Converted amounts (≈) assume the structure as drawn. “Also recorded” adds a separate entry of the source.

Assays:
[1] = test system: brine shrimp A. salina larvae; test: in vivo; type: in vivo; conditions: Method F, 24 hour mortalities
Protocol: (§1) Freshly hatched brine shrimps were prepared by adding aquarium brine shrimp eggs to salt water (15 g sea salt per litre water). The following day hatchlings were separated from eggs and empty egg cases, using their phototropic movement and a Pasteur pipette.
(§2) Into each of a set of small glass vials was pipetted 195 µL of brine containing 5 shrimp larvae, using a micropipette. The solution of the test compound in 5 µL acetone was added, the vial closed and kept at 30±1°C for observation.
(§3) Dead and alive shrimps were counted, at 1 and 24 hours after treatment, using a microscope. Six concentrations and a control were used with 10 shrimps treated.
(§4) A blank test was performed for comparison of the results.
(§5) Dosages used in insect treatments were based upon the amount of compound applied to each insect. For the shrimps the final concentrations of the compounds in the immersion brine were used.
(§6) The 24 hour mortalities were used to calculate the LD50/LC50 using regression analysis of the probability percent mortality (probit) against log dose/concentration.^30 This was calculated using PoloPC software (LeOra Software, Berkeley, CA, 1994).

[2] = test system: adult fruit fly (D. melanogaster); test: Method A: topical treatment of adult fruit fly; type: in vivo, Drosophila melanogaster; conditions: for LD50: Method A, topical, adult fruit flies, 24 hour mortalities; for activity against adult fruit flies: statement in words from LD50 values
Protocol: A culture of fruit flies (D. melanogaster) was used in the production of adult flies (approx 0.22 mg) of about seven days.
Serial dilutions of the compounds were prepared in acetone, and volumes of approximately 0.2 µL were applied to the ventral surface of each insect, using a calibrated PAX 100 microapplicator and a 1 mL syringe.
The fruit flies, in groups of 5, were anaesthetised using carbon dioxide. Prior to recovery the flies were placed in a containing vial and kept at 30±1°C, for observations of mortality at 1, 2, 3 and 24 hours after treatment.
For this purpose solutions of 6 different concentrations and a control were employed in groups of 12 and 20 insects. Control mortalities were normally zero but occasionally rose to 5-10%.
as §5, §6

[3] = test system: adult fruit flies; test: Method B: second method for topical treatment of adult fruit flies; type: in vivo, Drosophila melanogaster; conditions: topical 1 µL acetone solution
Protocol: Different dilutions of the compounds in acetone were prepared and applied to individual fruit flies using a Gilson piston micropipette.
Individual flies were held in padded forceps and 1 µL of acetone solution was applied. The acetone was allowed to evaporate before placing the fly into the vial for observation, kept at 30±1°C, following the standard methodology.
as §6

[4] = test system: glasshouse white fly (T. vaporariorum); test: Method G: foliar treatment of glasshouse white fly; type: in vivo; conditions: for efficacy against white fly: statement in words
Protocol: Seedlings of tomato plants were infested with adult white fly. Selected leaves of the tomato plants were excised and carefully trimmed to 3 leaflets without disturbing the infestation. These were placed in glass tubes containing water and the leaflets were then sprayed on both sides with a small sprayer delivering for each one 200 µL of a solution of the test compound dissolved in 30% acetone in water.
Controls were sprayed with the solvent alone.
Counts of insects on the individual leaflets were made immediately after spraying and then at 14 hours following.
Where single dose treatments were used (in the case of whitefly assays), no statistics are available and the results are expressed as percent effect.
Five compounds were tested, which were applied spraying 600 µL of each compound solution (prepared according to method G) on the leaves of tomato plants infested with a known number of adult whitefly. After 14 hours, the number of dead insects (or eventually of insects that disappeared) was counted. These assays were performed at room temperature, between 20 and 25°C.

[5] = test system: house fly adults (M. domestica); test: Method E: topical treatment of house fly adults; type: in vivo, Musca domestica; conditions: adult house flies
Protocol: A culture of an insecticide-susceptible strain, Cooper, was established. Three-day-old adult house flies (body weight about 1.8 mg) were anaesthetised with carbon dioxide. Using the PAX microapplicator, a volume of 1 µL of acetone solution of the test compounds was applied to the dorsal cuticle, holding the fly in padded forceps.
Groups of flies were placed into closed vials, kept at 30 ±1°C, for observation.
as §6

[6] = test system: fruit fly larvae; test: Method D: topical treatment of fruit fly larvae; type: in vivo, Drosophila melanogaster; conditions: for LD50: Method D, topical, fruit fly larvae; for toxicity for fruit fly larvae compared with adult flies: statement in words
Protocol: Fruit fly larvae were separated from the growing medium and second and third instars were topically treated with 0.2 µL acetone solutions of the compounds using a PAX microapplicator.
Larvae were held in padded forceps for dosing and then placed on moistened filter paper, at 30±1°C, for observation.
as §6

[7] = in vivo; type: in vivo; conditions: in vivo; Method F, brine shrimp larvae, 24 hour mortalities
Protocol: as §1, §2, §3, §4, §5, §6

Compound | LC50 [1] [µg/mL] | LD50 [2] | activity against adult fruit flies [2] | further results
CC1=C[C@H]([C@H]2O[C@@H]3OC(C)(C)O[C@@H]3[C@H]2OCc2ccccc2)OC1=O [Compound 1, 3-O-benzyl-6,7-dideoxy-1,2-O-isopropylidene-7-methyl-α-D-gluco-oct-6-enefuranurono-8,5-lactone] | 100.62 (≈ 290 µM) | 0.00002 µg/insect | extremely active | 
CC1=C[C@H]([C@H]2O[C@@H]3OC(C)(C)O[C@@H]3[C@@H]2OCc2ccccc2)OC1=O [Compound 2, 3-O-benzyl-6,7-dideoxy-1,2-O-isopropylidene-7-methyl-α-D-alo-oct-6-enefuranurono-8,5-lactone] | 64.30 (≈ 186 µM) |  | extremely active | LD50 [3]: 0.00398 µg/insect
CC1(C)O[C@H]2O[C@H]([C@H]3C=CC(=O)O3)[C@@H](OCc3ccccc3)[C@H]2O1 [Compound 3, 3-O-benzyl-6,7-dideoxy-1,2-O-isopropylidene-α-D-alo-oct-6-enefuranurono-8,5-lactone] | 144.71 (≈ 435 µM) | 5.02x10^-6 µg/insect | extremely active | % Control of White Fly ([4]; foliar, 14 h, 1.3 ug/mL): 0%
CC1(C)O[C@H]2O[C@H]([C@H]3C=CC(=O)O3)[C@H](OCc3ccccc3)[C@H]2O1 [Compound 4, 3-O-benzyl-6,7-dideoxy-1,2-O-isopropylidene-α-D-gluco-oct-6-enefuranurono-8,5-lactone] | 358.92 (≈ 1080 µM) | 0.00012 µg/insect |  | % Control of White Fly ([4]; foliar, 14 h, 2.5 ug/mL): 50%; efficacy against white fly [4]: show efficacy as insecticides; also recorded: promising for activity against the white fly
CC(=O)OC[C@H]1OC(=O)C(Br)=C[C@@H]1OC(C)=O [Compound 5, 4,6-di-O-acetyl-2-bromo-2,3-dideoxy-D-erythro-hex-2-enone-1,5-lactone] | 38.36 (≈ 125 µM) | 0.00016 µg/insect |  | LD50 [5]: 1.065 µg/insect; LD50 [6]: 4.75 µg/insect; toxicity for fruit fly larvae compared with adult flies [6]: less toxic for larvae than for adult flies
COC1OC(C2CC(C)([Se]c3ccccc3)C(=O)O2)C2OC12 [Compound 6, methyl (7R)-/(7S)-2,3-anhydro-6,7-dideoxy-7-methyl-7-phenylselenyl-β-L-gulo-octofuranurono-8,5-lactone] | 125.48 (≈ 340 µM) | 0.00015 µg/insect |  | % Control of White Fly ([4]; Concentration 1.3 µg/mL, sprayed tomato leaves, 14 hours): 0%
CC1(C)OC2OC(C3CC(C)([Se]c4ccccc4)C(=O)O3)C(OCc3ccccc3)C2O1 [Compound 8, (7R)-/(7S)-3-O-Benzyl-6,7-dideoxy-1,2-O-isopropylidene-7-methyl-7-phenylselenyl-α-D-gluco-octofuranurono-8,5-lactone] | 220.41 (≈ 438 µM) | 0.00037 µg/insect |  | LD50 [5]: 0.644 µg/insect; toxicity for fruit fly larvae compared with adult flies [6]: less toxic for larvae than for adult flies
O=[N+]([O-])NC1=NCCN1Cc1ccc(Cl)nc1 [Imidacloprid, reference compound] |  | 0.01253 µg/insect |  | LC50 at 24 h [7]: 0.0312 µg/mL (≈ 0.122 µM)
(7R)-/(7S)-3,6,7-Trideoxy-1,2-O-isopropylidene-7-methyl-7-phenylselenyl-α-D-ribo-octofuranurono-8,5-lactone [Compound 7] | 261.04 | 0.0002 µg/insect |  | % Control of White Fly ([4]; Concentration 4.8 µg/mL, sprayed tomato leaves, 14 hours): 0%; LD50 [6]: 0.968 µg/insect
Methyl 2,3;5,6-Dianhydro-β-L-gulofuranoside [Compound 9] | 671.50 | 0.00003 µg/insect | extremely active | % Control of White Fly ([4]; Concentration 2.5 µg/mL, sprayed tomato leaves, 14 hours): 85%; efficacy against white fly [4]: show efficacy as insecticides; also recorded: promising for activity against the white fly
